According to ChEMBL document CHEMBL1140955, “Synthesis and in vitro biological evaluation of valine-containing prodrugs derived from clinically used HIV-protease inhibitors” (Eur J Med Chem, 2008):

How the values were obtained:
[1] = tested on: Human immunodeficiency virus 1; experiment: Antiviral activity against HIV1 3B infected in human MT4 cells assessed as reverse transcriptase activity after 5 days by MTT assay; conditions: Human immunodeficiency virus 1, 3B, MT4, 120 h
Caco-2 [2] = experiment: Permeability from basolateral to apical side of human Caco-2 cells assessed as ratio of prodrug concentration in receiver to prodrug concentration in donor at 150 uM in donor chamber after 3 hrs; format: ADME, cell-based; conditions: caco-2, 3 h
[3] = tested on: Human immunodeficiency virus 1; experiment: Antiviral activity against HIV1 LAI infected in human CEM-SS cells assessed as ratio of IC50 for prodrug to IC50 for parent compound; format: functional
[4] = Apparent permeability from basolateral to apical side of human Caco-2 cells at 150 uM in donor chamber after 3 hrs; format: ADME, cell-based; conditions: read-out: permeability
[5] = Cytotoxicity against human CEM-SS cells after 5 days by MTT assay; format: cell-based
[6] = Cytotoxicity against human MT4 cells after 4 days by MTT assay; format: cell-based
[7] = tested on: Human immunodeficiency virus 1; experiment: Antiviral activity against HIV1 3B infected in human MT4 cells assessed as ratio of IC50 for prodrug to IC50 for parent compound
[8] = Chemical stability assessed as hydrolysis half life at pH 7.3; format: physicochemical; conditions: buffer
[9] = tested on: Human immunodeficiency virus 1; experiment: Antiviral activity against HIV1 LAI infected in human CEM-SS cells assessed as reverse transcriptase activity after 5 days by MTT assay; format: functional, organism-based; conditions: Human immunodeficiency virus 1, LAI, 120 h
[10] = Apparent permeability from apical to basolateral side of human Caco-2 cells at 80 uM in donor chamber after 3 hrs; format: ADME, cell-based; conditions: read-out: permeability
Caco-2 [11] = experiment: Permeability from apical to basolateral side of human Caco-2 cells assessed as ratio of prodrug concentration in receiver to prodrug concentration in donor at 80 uM in donor chamber after 3 hrs; format: ADME, cell-based; conditions: caco-2, 3 h
Caco-2 [12] = experiment: Permeability from basolateral to apical side of human Caco-2 cells assessed as ratio of prodrug concentration in receiver to prodrug concentration in donor at 80 uM in donor chamber after 3 hrs; format: ADME, cell-based; conditions: caco-2, 3 h
[13] = Apparent permeability from basolateral to apical side of human Caco-2 cells at 80 uM in donor chamber after 3 hrs; format: ADME, cell-based; conditions: read-out: permeability
Caco-2 [14] = experiment: Permeability from basolateral to apical side of human Caco-2 cells assessed as ratio of prodrug concentration in receiver to prodrug concentration in donor at 9.4 uM in donor chamber after 3 hrs; format: ADME, cell-based; conditions: caco-2, 3 h
[15] = Apparent permeability from basolateral to apical side of human Caco-2 cells at 9.4 uM in donor chamber after 3 hrs; format: ADME, cell-based; conditions: read-out: permeability
Caco-2 [16] = experiment: Permeability from apical to basolateral side of human Caco-2 cells assessed as ratio of prodrug concentration in receiver to prodrug concentration in donor at 9.4 uM in donor chamber after 3 hrs; format: ADME, cell-based; conditions: caco-2, 3 h
[17] = Apparent permeability from apical to basolateral side of human Caco-2 cells at 9.4 uM in donor chamber after 3 hrs; format: ADME, cell-based; conditions: read-out: permeability
[18] = Apparent permeability from apical to basolateral side of human Caco-2 cells at 26.5 uM in donor chamber after 3 hrs; format: ADME, cell-based; conditions: read-out: permeability
[19] = Apparent permeability from basolateral to apical side of human Caco-2 cells at 26.5 uM in donor chamber after 3 hrs; format: ADME, cell-based; conditions: read-out: permeability
Caco-2 [20] = experiment: Permeability from basolateral to apical side of human Caco-2 cells assessed as ratio of prodrug concentration in receiver to prodrug concentration in donor at 330 uM in donor chamber after 3 hrs; format: ADME, cell-based; conditions: caco-2, 3 h
Caco-2 [21] = experiment: Permeability from apical to basolateral side of human Caco-2 cells assessed as ratio of prodrug concentration in receiver to prodrug concentration in donor at 177 uM in donor chamber after 3 hrs; format: ADME, cell-based; conditions: caco-2, 3 h
Caco-2 [22] = experiment: Permeability from basolateral to apical side of human Caco-2 cells assessed as ratio of prodrug concentration in receiver to prodrug concentration in donor at 26.5 uM in donor chamber after 3 hrs; format: ADME, cell-based; conditions: caco-2, 3 h
Caco-2 [23] = experiment: Permeability from apical to basolateral side of human Caco-2 cells assessed as ratio of prodrug concentration in receiver to prodrug concentration in donor at 26.5 uM in donor chamber after 3 hrs; format: ADME, cell-based; conditions: caco-2, 3 h
Caco-2 [24] = experiment: Permeability from apical to basolateral side of human Caco-2 cells assessed as ratio of prodrug concentration in receiver to prodrug concentration in donor at 330 uM in donor chamber after 3 hrs; format: ADME, cell-based; conditions: caco-2, 3 h
Caco-2 [25] = experiment: Permeability from basolateral to apical side of human Caco-2 cells assessed as ratio of prodrug concentration in receiver to prodrug concentration in donor at 177 uM in donor chamber after 3 hrs; format: ADME, cell-based; conditions: caco-2, 3 h
[26] = Apparent permeability from basolateral to apical side of human Caco-2 cells at 177 uM in donor chamber after 3 hrs; format: ADME, cell-based; conditions: read-out: permeability
[27] = Apparent permeability from apical to basolateral side of human Caco-2 cells at 177 uM in donor chamber after 3 hrs; format: ADME, cell-based; conditions: read-out: permeability
[28] = Apparent permeability from basolateral to apical side of human Caco-2 cells at 185 uM in donor chamber after 3 hrs; format: ADME, cell-based; conditions: read-out: permeability
Caco-2 [29] = experiment: Permeability from basolateral to apical side of human Caco-2 cells assessed as ratio of prodrug concentration in receiver to prodrug concentration in donor at 185 uM in donor chamber after 3 hrs; format: ADME, cell-based; conditions: caco-2, 3 h
[30] = Apparent permeability from apical to basolateral side of human Caco-2 cells at 175 uM in donor chamber after 3 hrs; format: ADME, cell-based; conditions: read-out: permeability
[31] = Apparent permeability from basolateral to apical side of human Caco-2 cells at 175 uM in donor chamber after 3 hrs; format: ADME, cell-based; conditions: read-out: permeability
[32] = Apparent permeability from basolateral to apical side of human Caco-2 cells at 330 uM in donor chamber after 3 hrs; format: ADME, cell-based; conditions: read-out: permeability
[33] = Apparent permeability from apical to basolateral side of human Caco-2 cells at 330 uM in donor chamber after 3 hrs; format: ADME, cell-based; conditions: read-out: permeability
Caco-2 [34] = experiment: Permeability from apical to basolateral side of human Caco-2 cells assessed as ratio of prodrug concentration in receiver to prodrug concentration in donor at 21 uM in donor chamber after 3 hrs; format: ADME, cell-based; conditions: caco-2, 3 h
[35] = Apparent permeability from basolateral to apical side of human Caco-2 cells at 21 uM in donor chamber after 3 hrs; format: ADME, cell-based; conditions: read-out: permeability
[36] = Apparent permeability from apical to basolateral side of human Caco-2 cells at 21 uM in donor chamber after 3 hrs; format: ADME, cell-based; conditions: read-out: permeability
Caco-2 [37] = experiment: Permeability from basolateral to apical side of human Caco-2 cells assessed as ratio of prodrug concentration in receiver to prodrug concentration in donor at 21 uM in donor chamber after 3 hrs; format: ADME, cell-based; conditions: caco-2, 3 h

Compound	IC50 [1] [nM]	Ratio IC50 [3]	CC50 at 120 h [5] [nM]	CC50 at 96 h [6] [nM]	Ratio IC50 [7]	half-life [8] [h]	IC50 [9] [nM]	other results
CC(C)[C@H](N)C(=O)NCCCCCC(=O)O[C@@H](C[C@@H](Cc1ccccc1)C(=O)N[C@H]1c2ccccc2C[C@H]1OC(=O)CCCCCNC(=O)[C@@H](N)C(C)C)CN1CCN(Cc2cccnc2)C[C@H]1C(=O)NC(C)(C)C.O=C(O)C(F)(F)F.O=C(O)C(F)(F)F	2950	>=64	> 50000	45000	134	80	640	Activity (Caco-2 [2]): 2.1%; Papp B→A at 3 h, 150 µM [4]: 6.26 ×10⁻⁶ cm/s
Cc1c(O)cccc1C(=O)N[C@@H](CSc1ccccc1)[C@H](O)CN1C[C@H]2CCCC[C@H]2C[C@H]1C(=O)NC(C)(C)C							2	Papp A→B at 3 h, 80 µM [10]: 1.03 ×10⁻⁶ cm/s; Activity (Caco-2 [11]): 2.7%; Activity (Caco-2 [12]): 6.3%; Papp B→A at 3 h, 80 µM [13]: 2.51 ×10⁻⁶ cm/s
Cc1c(OC(=O)CCCCCNC(=O)[C@@H](N)C(C)C)cccc1C(=O)N[C@@H](CSc1ccccc1)[C@H](O)CN1C[C@H]2CCCC[C@H]2C[C@H]1C(=O)NC(C)(C)C.O=C(O)C(F)(F)F	230	47	> 10000	10000		72	94	
CC(C)(C)NC(=O)[C@@H]1C[C@@H]2CCCC[C@@H]2CN1C[C@@H](O)[C@H](Cc1ccccc1)NC(=O)[C@H](CC(N)=O)NC(=O)c1ccc2ccccc2n1	18		> 10000	> 10000			9	Activity (Caco-2 [14]): 10.3%; Papp B→A at 3 h, 9.4 µM [15]: 1.1 ×10⁻⁶ cm/s; Activity (Caco-2 [16]): 2.6%; Papp A→B at 3 h, 9.4 µM [17]: 3.98 ×10⁻⁶ cm/s
CC(C)[C@@H](N)C(=O)NCCCCCC(=O)O[C@H](CN1C[C@H]2CCCC[C@H]2C[C@H]1C(=O)NC(C)(C)C)[C@H](Cc1ccccc1)NC(=O)[C@H](CC(N)=O)NC(=O)c1ccc2ccccc2n1.O=C(O)C(F)(F)F.O=C(O)C(F)(F)F.O=C(O)C(F)(F)F	340	19	9000	5300	19	60	175	Papp A→B at 3 h, 26.5 µM [18]: 0.58 ×10⁻⁶ cm/s; Papp B→A at 3 h, 26.5 µM [19]: 1.87 ×10⁻⁶ cm/s; Activity (Caco-2 [20]): 18.1%; Activity (Caco-2 [21]): 14%; Activity (Caco-2 [22]): 4.8%; Activity (Caco-2 [23]): 2.2%; Activity (Caco-2 [24]): 15.6%; Activity (Caco-2 [25]): 14.6%
CC(C)[C@H](N)C(=O)O[C@@H](C[C@@H](Cc1ccccc1)C(=O)N[C@H]1c2ccccc2C[C@H]1O)CN1CCN(Cc2cccnc2)C[C@H]1C(=O)NC(C)(C)C.O=C(O)C(F)(F)F	27	>=9	> 100000	100000	1	68	90	Papp B→A at 3 h, 177 µM [26]: 7.08 ×10⁻⁶ cm/s; Activity (Caco-2 [21]): 14%; Papp A→B at 3 h, 177 µM [27]: 5.13 ×10⁻⁶ cm/s; Activity (Caco-2 [25]): 14.6%
CC(C)[C@H](N)C(=O)NCCCCCC(=O)O[C@@H]1Cc2ccccc2[C@@H]1NC(=O)[C@H](Cc1ccccc1)C[C@H](O)CN1CCN(Cc2cccnc2)C[C@H]1C(=O)NC(C)(C)C.O=C(O)C(F)(F)F	230	>=3.6	> 10000	47000	10	72	36	Papp B→A at 3 h, 185 µM [28]: 2.92 ×10⁻⁶ cm/s; Activity (Caco-2 [29]): 9%
CC(C)(C)NC(=O)[C@@H]1CN(Cc2cccnc2)CCN1C[C@@H](O)C[C@@H](Cc1ccccc1)C(=O)N[C@H]1c2ccccc2C[C@H]1O.O=S(=O)(O)O [INDINAVIR SULFATE]	22		> 100000	> 100000			≤ 10	Papp A→B at 3 h, 175 µM [30]: 1.03 ×10⁻⁶ cm/s; Papp B→A at 3 h, 175 µM [31]: 15.5 ×10⁻⁶ cm/s
Cc1c(OC(=O)CCCCCNC(=O)[C@@H](N)C(C)C)cccc1C(=O)N[C@@H](CSc1ccccc1)[C@@H](CN1C[C@H]2CCCC[C@H]2C[C@H]1C(=O)NC(C)(C)C)OC(=O)CCCCCNC(=O)[C@H](N)C(C)C.O=C(O)C(F)(F)F.O=C(O)C(F)(F)F		7750	5000	4800		82	15500	
CC(C)[C@H](N)C(=O)O[C@@H]1Cc2ccccc2[C@@H]1NC(=O)[C@H](Cc1ccccc1)C[C@H](O)CN1CCN(Cc2cccnc2)C[C@H]1C(=O)NC(C)(C)C.O=C(O)C(F)(F)F	150	>=1.7	> 100000	> 100000	7	46	17	Papp B→A at 3 h, 330 µM [32]: 7.37 ×10⁻⁶ cm/s; Activity (Caco-2 [20]): 18.1%; Papp A→B at 3 h, 330 µM [33]: 6.44 ×10⁻⁶ cm/s; Activity (Caco-2 [24]): 15.6%
CC(C)[C@H](N)C(=O)O[C@H](CN1C[C@H]2CCCC[C@H]2C[C@H]1C(=O)NC(C)(C)C)[C@H](Cc1ccccc1)NC(=O)[C@H](CC(N)=O)NC(=O)c1ccc2ccccc2n1.O=C(O)C(F)(F)F	290	16	> 10000	> 10000	16	40	140	Activity (Caco-2 [34]): 6.1%; Papp B→A at 3 h, 21 µM [35]: 3.43 ×10⁻⁶ cm/s; Papp A→B at 3 h, 21 µM [36]: 2.32 ×10⁻⁶ cm/s; Activity (Caco-2 [37]): 9.6%
